Converted amounts (≈) assume the structure as drawn. Like-named read-outs stand apart in the source and are kept apart here.
How the values were obtained:
[1] = target: T1, full-length beta-Catenin (Uniprot ID P35222) (Homo sapiens, UniProt P35222); assay: Fluorescence polarization IC50 (beta-catenin / 5FAM-TCF4 10-53 competition); type: binding
T1 construct: 10 nM full-length beta-Catenin (Uniprot ID P35222)
T1 sequence (P35222 1-781): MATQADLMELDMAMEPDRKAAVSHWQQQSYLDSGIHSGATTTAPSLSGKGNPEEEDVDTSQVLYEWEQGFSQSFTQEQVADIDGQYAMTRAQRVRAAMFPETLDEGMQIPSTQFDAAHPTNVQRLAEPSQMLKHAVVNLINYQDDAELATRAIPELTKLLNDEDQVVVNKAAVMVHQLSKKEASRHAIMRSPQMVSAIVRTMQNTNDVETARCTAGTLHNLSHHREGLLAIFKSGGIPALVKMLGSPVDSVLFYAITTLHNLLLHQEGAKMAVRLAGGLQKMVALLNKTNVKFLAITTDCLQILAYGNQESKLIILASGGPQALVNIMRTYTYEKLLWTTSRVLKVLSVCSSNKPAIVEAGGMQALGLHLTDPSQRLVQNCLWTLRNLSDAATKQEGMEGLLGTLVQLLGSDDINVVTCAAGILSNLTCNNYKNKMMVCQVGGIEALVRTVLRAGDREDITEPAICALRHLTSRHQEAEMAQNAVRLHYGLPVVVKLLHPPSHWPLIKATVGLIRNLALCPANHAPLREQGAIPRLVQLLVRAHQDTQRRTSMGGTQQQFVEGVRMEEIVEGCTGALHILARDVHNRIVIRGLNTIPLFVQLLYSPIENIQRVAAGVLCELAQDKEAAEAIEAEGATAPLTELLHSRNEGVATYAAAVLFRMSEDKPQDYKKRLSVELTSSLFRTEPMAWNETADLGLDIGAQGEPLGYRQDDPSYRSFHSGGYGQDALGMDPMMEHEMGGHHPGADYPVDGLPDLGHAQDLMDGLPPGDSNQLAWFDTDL

[2] = CHI Log D procedure; type: physicochemical; details: for CHI Log D: pH 7.4; for chromatographic logD: pH 7.4, CHI Log D
[3] = Solubility in PBS; type: physicochemical
Outline: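 PBS sample ultracentrifuged; supernatant run on HPLC vs. 50 μM peptide in DMSO standard. Solubility = (PBS peak area / DMSO peak area) × 50 uM.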

[4] = fluorescence polarization, read-out: beta-Catenin FP IC50

Compound | IC50 [1, 4] [µM] | IC50 ([1]; read-out: FP EC50) [µM] | CHI Log D [2] | Solubility [3] [µM] | chromatographic logD [2] | Solubility ([3]; Solubility (uM)) [µM]
CCC[C@@H]1NC(=O)[C@H](CC(=O)O)NC(=O)[C@]2(CC=CCCCC3(CCCC=CCCCCCC[C@@](C)(C(=O)N[C@@H](Cc4ccccc4)C(=O)N[C@@H](Cc4csc5ccccc45)C(=O)N[C@@H](CCC(N)=O)C(N)=O)NC(=O)[C@H](CCC(N)=O)NC(=O)[C@H](Cc4ccccc4)NC(=O)[C@H](C)NC(=O)[C@H](C)NC(=O)[C@H](CCC(=O)O)NC(=O)[C@H](CC(=O)O)NC3=O)NC1=O)CCCN2C(C)=O (stereo partly drawn) [I-522, Ac-PL3-Asp-Nva-B5-Asp-Glu-Ala-Ala-Phe-Gln-S8-Phe-BztA-Gln-NH2] | 0.075 | 0.075 | 2.214 | 50 (≈ 93.5 µg/mL) |  | 
CCC[C@@H]1NC(=O)[C@H](CC(=O)O)NC(=O)[C@]2(CC=CCCCC3(CCCC=CCCCCCC[C@@](C)(C(=O)N[C@@H](Cc4ccccc4)C(=O)N[C@@H](Cc4csc5ccccc45)C(=O)N[C@@H](CCC(N)=O)C(N)=O)NC(=O)[C@H](CCC(N)=O)NC(=O)[C@H](Cc4ccccc4)NC(=O)[C@H](C)NC(=O)[C@H](C)NC(=O)[C@H](CCC(=O)O)NC(=O)[C@H](CC(=O)O)NC3=O)NC1=O)CCCN2C(C)=O (stereo partly drawn) [I-523, Ac-PL3-Asp-Nva-B5-Asp-Glu-Ala-Ala-Phe-Gln-S8-Phe-BztA-Gln-NH2] | 0.044 | 0.044 | 2.241 | 50 (≈ 93.5 µg/mL) |  | 
CC(=O)N1CCC[C@]12CC=CCCCC1(CCCC=CCCCCCC[C@@](C)(C(=O)N[C@@H](Cc3ccccc3)C(=O)N[C@@H](Cc3csc4ccccc34)C(=O)N[C@@H](CCC(N)=O)C(N)=O)NC(=O)[C@H](CC(N)=O)NC(=O)[C@H](Cc3cscn3)NC(=O)[C@H](C)NC(=O)[C@H](C)NC(=O)[C@H](CCC(=O)O)NC(=O)[C@H](CC(=O)O)NC1=O)NC(=O)[C@H](C)NC(=O)[C@H](CC(=O)O)NC2=O (stereo partly drawn) [I-524, Ac-PL3-Asp-Ala-B5-Asp-Glu-Ala-Ala-4Thz-Asn-S8-Phe-BztA-Gln-NH2] | 2.55 |  |  | 50 (≈ 91.7 µg/mL) | 1.89 | 
CC(=O)N1CCC[C@]12CC=CCCCC1(CCCC=CCCCCCC[C@@](C)(C(=O)N[C@@H](Cc3ccccc3)C(=O)N[C@@H](Cc3csc4ccccc34)C(=O)N[C@@H](CCC(N)=O)C(N)=O)NC(=O)[C@H](CC(N)=O)NC(=O)[C@H](Cc3ccccc3)NC(=O)[C@H](C)NC(=O)[C@H](C)NC(=O)[C@H](CNS(C)(=O)=O)NC(=O)[C@H](CC(=O)O)NC1=O)NC(=O)[C@H](C)NC(=O)[C@H](CC(=O)O)NC2=O (stereo partly drawn) [I-533, Ac-PL3-Asp-Ala-B5-Asp-[MeSO2]Dap-Ala-Ala-Phe-Asn-S8-Phe-BztA-Gln-NH2] | 0.155 |  |  |  | 2.29 | 44 (≈ 81.9 µg/mL)
CC(=O)N1CCC[C@]12CC=CCCCC1(CCCC=CCCCCCC[C@@](C)(C(=O)N[C@@H](Cc3ccccc3)C(=O)N[C@@H](Cc3csc4ccccc34)C(=O)N[C@@H](CCC(N)=O)C(N)=O)NC(=O)[C@H](CC(N)=O)NC(=O)[C@H](Cc3ccccc3)NC(=O)[C@H](C)NC(=O)[C@H](C)NC(=O)[C@H](CCC(=O)O)NC(=O)[C@H](CC(=O)O)NC1=O)NC(=O)[C@H](C)NC(=O)[C@H](CNS(C)(=O)=O)NC2=O (stereo partly drawn) [I-534, Ac-PL3-[MeSO2]Dap-Ala-B5-Asp-Glu-Ala-Ala-Phe-Asn-S8-Phe-BztA-Gln-NH2] | 5 |  |  |  | 2.43 | 31 (≈ 58.2 µg/mL)
CC(=O)N1CCC[C@]12CC=CCCCC1(CCCC=CCCCCCC[C@@](C)(C(=O)N[C@@H](Cc3ccccc3)C(=O)N[C@@H](Cc3csc4ccccc34)C(=O)N[C@@H](CCC(N)=O)C(N)=O)NC(=O)[C@H](C(C)C)NC(=O)[C@H](Cc3ccccc3)NC(=O)[C@H](C)NC(=O)[C@H](C)NC(=O)[C@H](CC(=O)O)NC(=O)[C@H](CC(=O)NC(C)C)NC1=O)NC(=O)[C@H](C)NC(=O)[C@H](CC(=O)O)NC2=O (stereo partly drawn) [I-535, Ac-PL3-Asp-Ala-B5-[NHiPr]AsnR-Asp-Ala-Ala-Phe-Val-S8-Phe-BztA-Gln-NH2] | 5 |  |  |  | 2.86 | 47 (≈ 86.4 µg/mL)
CCNC(=O)C[C@@H]1NC(=O)C2(CCCC=CCCCCCC[C@@](C)(C(=O)N[C@@H](Cc3ccccc3)C(=O)N[C@@H](Cc3csc4ccccc34)C(=O)N[C@@H](CCC(N)=O)C(N)=O)NC(=O)[C@H](C(C)C)NC(=O)[C@H](Cc3ccccc3)NC(=O)[C@H](C)NC(=O)[C@H](C)NC(=O)[C@H](CC(=O)O)NC1=O)CCCC=CC[C@]1(CCCN1C(C)=O)C(=O)N[C@@H](CC(=O)O)C(=O)N[C@@H](C)C(=O)N2 (stereo partly drawn) [I-536, Ac-PL3-Asp-Ala-B5-[NHEt]AsnR-Asp-Ala-Ala-Phe-Val-S8-Phe-BztA-Gln-NH2] | 4.47 |  |  |  | 2.75 | 23 (≈ 42 µg/mL)
CCCNC(=O)C[C@@H]1NC(=O)C2(CCCC=CCCCCCC[C@@](C)(C(=O)N[C@@H](Cc3ccccc3)C(=O)N[C@@H](Cc3csc4ccccc34)C(=O)N[C@@H](CCC(N)=O)C(N)=O)NC(=O)[C@H](C(C)C)NC(=O)[C@H](Cc3ccccc3)NC(=O)[C@H](C)NC(=O)[C@H](C)NC(=O)[C@H](CC(=O)O)NC1=O)CCCC=CC[C@]1(CCCN1C(C)=O)C(=O)N[C@@H](CC(=O)O)C(=O)N[C@@H](C)C(=O)N2 (stereo partly drawn) [I-537, Ac-PL3-Asp-Ala-B5-[NHnPr]AsnR-Asp-Ala-Ala-Phe-Val-S8-Phe-BztA-Gln-NH2] | 5 |  |  |  | 2.87 | 11 (≈ 20.2 µg/mL)
CC(=O)N1CCC[C@]12CC=CCCCC1(CCCC=CCCCCCC[C@@](C)(C(=O)N[C@@H](Cc3ccccc3)C(=O)N[C@@H](Cc3csc4ccccc34)C(=O)N[C@@H](CCC(N)=O)C(N)=O)NC(=O)[C@H](C(C)C)NC(=O)[C@H](Cc3ccccc3)NC(=O)[C@H](C)NC(=O)[C@H](C)NC(=O)[C@H](CC(=O)O)NC(=O)[C@H](CC(=O)NC3CC3)NC1=O)NC(=O)[C@H](C)NC(=O)[C@H](CC(=O)O)NC2=O (stereo partly drawn) [I-538, Ac-PL3-Asp-Ala-B5-[NHCyPr]AsnR-Asp-Ala-Ala-Phe-Val-S8-Phe-BztA-Gln-NH2] | 5 |  |  |  | 2.75 | 33 (≈ 60.6 µg/mL)
CC(=O)N1CCC[C@]12CC=CCCCC1(CCCC=CCCCCCC[C@@](C)(C(=O)N[C@@H](Cc3ccccc3)C(=O)N[C@@H](Cc3csc4ccccc34)C(=O)N[C@@H](CCC(N)=O)C(N)=O)NC(=O)[C@H](C(C)C)NC(=O)[C@H](Cc3ccccc3)NC(=O)[C@H](C)NC(=O)[C@H](C)NC(=O)[C@H](CC(=O)O)NC(=O)[C@H](CC(=O)NC3CCC3)NC1=O)NC(=O)[C@H](C)NC(=O)[C@H](CC(=O)O)NC2=O (stereo partly drawn) [I-539, Ac-PL3-Asp-Ala-B5-[NHCyBu]AsnR-Asp-Ala-Ala-Phe-Val-S8-Phe-BztA-Gln-NH2] | 5 |  |  | 10 (≈ 18.5 µg/mL) | 2.94 | 
CO[C@H](C)[C@@H]1NC(=O)[C@H](CC(=O)O)NC(=O)[C@]2(CC=CCCCC3(CCCC=CCCCCCC[C@@](C)(C(=O)N[C@@H](Cc4ccccc4)C(=O)N[C@@H](Cc4csc5ccccc45)C(=O)N[C@@H](CCC(N)=O)C(N)=O)NC(=O)[C@H](CCC(N)=O)NC(=O)[C@H](Cc4ccccc4)NC(=O)[C@H](C)NC(=O)[C@H](C)NC(=O)[C@H](CCC(=O)O)NC(=O)[C@H](CC(=O)O)NC3=O)NC1=O)CCCN2C(C)=O (stereo partly drawn) [I-541, Ac-PL3-Asp-TOMe-B5-Asp-Glu-Ala-Ala-Phe-Gln-S8-Phe-BztA-Gln-NH2] | 0.18 | 0.18 | 2.087 | 50 (≈ 94.3 µg/mL) |  | 
CO[C@H](C)[C@@H]1NC(=O)[C@H](CC(=O)O)NC(=O)[C@]2(CC=CCCCC3(CCCC=CCCCCCC[C@@](C)(C(=O)N[C@@H](Cc4ccccc4)C(=O)N[C@@H](Cc4csc5ccccc45)C(=O)N[C@@H](CCC(N)=O)C(N)=O)NC(=O)[C@H](CCC(N)=O)NC(=O)[C@H](Cc4ccccc4)NC(=O)[C@H](C)NC(=O)[C@H](C)NC(=O)[C@H](CCC(=O)O)NC(=O)[C@H](CC(=O)O)NC3=O)NC1=O)CCCN2C(C)=O (stereo partly drawn) [I-542, Ac-PL3-Asp-TOMe-B5-Asp-Glu-Ala-Ala-Phe-Gln-S8-Phe-BztA-Gln-NH2] | 0.109 | 0.109 | 2.135 | 39 (≈ 73.5 µg/mL) |  | 
